pIC50: −log10 of the molar value.
Experiments:
[1] = biological target: VIM-1 (Pseudomonas aeruginosa, UniProt A0A0F7KYQ8); assay: Enzyme activity: determination of IC50, fluorescence assay with CCF2-FA substrate (VIM-1); type: biochemical; conditions: 30 pM enzyme, 1.25 μM CCF2-FA, 2 hours at 25° C.; read-out: VIM1 IC50
Procedure: (§1) The Class B enzyme activities were measured in the presence of the test inhibitor in a fluorescence assay against a commercially available substrate consisting of a cephalosporin core linking 7-hydroxycoumarin to fluorescein (CCF2-FA). The enzyme (NDM-1, IMP-1 or VIM-1) and the substrate were diluted in 100 mM KH2PO4 buffer (pH 7) containing 0.005% Tween-20 and 10 μM ZnSO4. In the assay, the final concentration of enzyme was 1 pM, 2 pM and 30 pM for NDM-1, IMP-1 and VIM-1, respectively, and the final concentration of CCF2-FA was 1.25 μM. The test inhibitor was dissolved in dimethylsulfoxide and diluted 1:50 in the assay, resulting in a final concentration range of 20 μM to 0.00063 μM. In a 384-well microplate, the test inhibitor was incubated with the metallo-β-lactamase enzyme and the substrate for 2 hours at 25° C. Fluorescence at 460 nm following excitation at 405 nm was measured. The IC50 value was determined from semi-logarithmic plots of enzyme inhibition versus inhibitor concentration, with a curve generated using a 4-parameter fit.

[2] = biological target: NDM-1 (Klebsiella pneumoniae, UniProt C7C422); assay: Enzyme activity: determination of IC50, fluorescence assay with CCF2-FA substrate (NDM-1); type: biochemical; conditions: 1 pM enzyme, 1.25 μM CCF2-FA, 2 hours at 25° C.; read-out: NDM1 IC50
NDM-1, sequence (C7C422 29-270, looked up, species assumed): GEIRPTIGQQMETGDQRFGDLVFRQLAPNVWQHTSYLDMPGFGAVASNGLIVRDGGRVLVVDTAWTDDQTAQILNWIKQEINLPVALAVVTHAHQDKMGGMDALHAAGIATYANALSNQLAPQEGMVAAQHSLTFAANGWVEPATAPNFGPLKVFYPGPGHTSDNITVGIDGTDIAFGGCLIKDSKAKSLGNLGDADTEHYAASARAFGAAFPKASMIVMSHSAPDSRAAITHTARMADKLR
Procedure: as §1

[3] = tested on: P. aeruginosa MB9799 (efflux mutant, IMP-1); assay: Efflux: concentration of MBL inhibitor restoring susceptibility to imipenem (MITC95), efflux− strain; type: cell-based, Pseudomonas aeruginosa; conditions: imipenem at 2 μg/mL in the presence of a class A, C, D serine β-lactamase inhibitor closely related to relebactam
Description: (§2) In order to assess the contribution of efflux to lack of whole cell inhibition of metallo-beta-lactamase inhibitors of formula I, tool strains were constructed. The strain background is Pseudomonas aeruginosa PAO1. A wild-type (MB5919) and an isogenic strain in which multiple efflux pumps have been disrupted genetically were used. The MBL IMP-1, obtained from a clinical isolate was introduced into the strain pair by the following process:
(§3) Plasmid DNA (encoding IMP-1) was extracted from CL 5673 (IMP-1, P. aeruginosa clinical strain) by standard techniques. The plasmid DNA was transformed into parental MB5919 (oprD+, efflux+, inducible AmpC) and MB5890 (oprD+, efflux−, inducible AmpC) isogenic strains by electroporation. These transformed strains were plated onto cation-adjusted Muller-Hinton agar plates containing ceftazidime at 32 μg/mL (MB5919) and 16 μg/mL (MB5890) to select for those cells in which the IMP-1-expressing plasmid was introduced successfully, resulting in resistance to ceftazidime. Agarose-gel electrophoresis of PCR product for IMP-1 from the successful transformants was used to compare to control and to the original strain from which the plasmid was obtained, confirming transfer of the IMP-1 gene (data not shown).
(§4) The strain set was then used as a pair to determine the effect of metallo-β-lactamase inhibitors of Formula Ion the MIC of imipenem and/or ceftazidime. A fixed concentration of antibiotic is included in standard microbroth MIC tests, usually at the CLSI breakpoint concentration. A fixed amount of a class A/C beta-lactamase inhibitor is also included to inhibit the resident Pseudomonas AmpC enzyme. A serial titration of the metallo-β-lactamase inhibitor was included and the concentration of metallo-β-lactamase inhibitor which restores susceptibility of the strain to the included antibiotic was recorded. That concentration of metallo-β-lactamase inhibitor was then compared between the two strains to determine the fold difference between the efflux+(MB9798) and efflux−(MB9799) strains, which indicates n the extent to which the MBLi is subject to efflux.

[4] = biological target: VIM-2 (Escherichia coli, UniProt Q5U7L7); assay: Enzyme activity: determination of IC50 (VIM-2); type: biochemical; conditions: read-out: VIM2 IC50
[5] = tested on: P. aeruginosa MB9798 (efflux WT, IMP-1); assay: Efflux: concentration of MBL inhibitor restoring susceptibility to imipenem (MITC95), efflux+ strain; type: cell-based, Pseudomonas aeruginosa; conditions: imipenem at 2 μg/mL in the presence of a class A, C, D serine β-lactamase inhibitor closely related to relebactam
Description: as §2, §3, §4

[6] = tested on: Klebsiella pneumoniae expressing VIM-1 (IHMA599644); assay: Antibiotic potentiation activity: synergistic concentration (MITC95) with imipenem; type: cell-based; conditions: imipenem 1 μg/mL; lowest concentration inhibiting 95% of growth; 35° C., 22-24 hours
Procedure: (§5) The bacterial strains tested included the clinical strains Escherichia coli expressing NDM-1 (CLB30005, CLB30016), Serratia marcescens expressing IMP-1 (CL5741), and Klebsiella pneumoniae expressing VIM-1 (IHMA599644). Inhibitor activity was measured in the presence and absence of imipenem in a 384-well microplate.
(§6) The clinical strains CLB30016, CL5741 and IHMA599644 were grown on trypticase soy agar containing 5% sheep's blood. The bacteria on agar plates were incubated at 35° C. with humidity overnight. The following day, individual colonies from each clinical strain were picked and resuspended in 5 mL saline to attain an OD600 of 0.14, 0.11, 0.15 and 0.13, for CLB30016, CL5741 and IHMA599644, respectively. These were further diluted 1:100 into 1.1× CAMHB and used to inoculate the test wells as described below.
(§7) Imipenem in 10 mM 3-(N-morpholino)propanesulfonic acid (MOPS, pH 7) was stored in single use aliquots at −80° C. […] On the day of the assay, 4 μl of antibiotic was added to 45 μl of bacteria followed by 1 μl of test compound and mixed by pipetting and with an orbital shaker. The concentration of antibiotic used in the assay was 1 μg/mL. Microplates were covered and incubated at 35° C. for 22 hours to 24 hours. At the end of the incubation, absorbance was determined using a spectrophotometer. The synergistic concentration of MBLI was determined by identifying the lowest concentration of test compound in the presence of a given concentration of antibiotic that was required to inhibit 95% of the growth of the bacteria. The results for Examples 1-209 are reported in Table 1, expressed as the concentration of compound that potentiated the action of antibiotic (imipenem) affecting 95% inhibition of bacterial growth (MITC95).

[7] = tested on: Escherichia coli expressing NDM-1 (CLB30016); assay: as above; type: cell-based; conditions: imipenem 1 μg/mL; lowest concentration inhibiting 95% of growth; 35° C., 22-24 hours
Procedure: as §5, §6, §7

[8] = tested on: Serratia marcescens expressing IMP-1 (CL5741); assay: as above; type: cell-based; conditions: imipenem 1 μg/mL; lowest concentration inhibiting 95% of growth; 35° C., 22-24 hours
Procedure: as §5, §6, §7

[9] = biological target: IMP-1 (Serratia marcescens, UniProt P52699); assay: Enzyme activity: determination of IC50, fluorescence assay with CCF2-FA substrate (IMP-1); type: biochemical; conditions: 2 pM enzyme, 1.25 μM CCF2-FA, 2 hours at 25° C.; read-out: IMP1 IC50
IMP-1, sequence (P52699 19-246, looked up, species assumed): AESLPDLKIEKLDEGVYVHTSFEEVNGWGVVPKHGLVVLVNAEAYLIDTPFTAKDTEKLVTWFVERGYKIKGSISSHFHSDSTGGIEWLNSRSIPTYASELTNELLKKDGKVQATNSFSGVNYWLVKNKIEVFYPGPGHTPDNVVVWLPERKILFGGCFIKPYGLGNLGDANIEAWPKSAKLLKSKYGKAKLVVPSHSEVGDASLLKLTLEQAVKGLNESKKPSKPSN
Procedure: as §1

SMILES: NC[C@@H](O)CNS(=O)(=O)c1ccc(N2CCn3ccnc32)c(-c2nnn[nH]2)c1S(N)(=O)=O [Example 19, (R)—N1-(3-amino-2-hydroxypropyl)-4-(2,3-dihydro-1H-imidazo[1,2-a]imidazol-1-yl)-3-(1H-tetrazol-5-yl)benzene-1,2-disulfonamide]
- pIC50 [1]: 8.22
- pIC50 [2]: 8.99
- MB9799 MITC95 P. aeruginosa Efflux Mutant [3]: 1.56 µM
- pIC50 [4]: 8.01
- MB9798 MITC95 P. aeruginosa Efflux WT [5]: 6.25 µM
- IHMA599644 K.pneumoniae MITC95 uM VIM [6]: 3.13 µM
- CLB30016 E.coli MITC95 NDM [7]: 0.20 µM
- CL5741 S.marcescens MITC95 uM IMP [8]: 0.78 µM
- pIC50 [9]: 7.92

SMILES: NCCNS(=O)(=O)c1ccc(N2CCn3ccnc32)c(-c2nnn[nH]2)c1S(N)(=O)=O [Example 20, N1-(2-aminoethyl)-4-(2,3-dihydro-1H-imidazo[1,2-a]imidazol-1-yl)-3-(1H-tetrazol-5-yl)benzene-1,2-disulfonamide]
- pIC50 [1]: 7.91
- pIC50 [2]: 8.77
- MB9799 MITC95 P. aeruginosa Efflux Mutant [3]: 0.78 µM
- pIC50 [4]: 7.82
- MB9798 MITC95 P. aeruginosa Efflux WT [5]: 6.25 µM
- IHMA599644 K.pneumoniae MITC95 uM VIM [6]: 3.13 µM
- CLB30016 E.coli MITC95 NDM [7]: 0.39 µM
- CL5741 S.marcescens MITC95 uM IMP [8]: 0.78 µM
- pIC50 [9]: 8.01

SMILES: NS(=O)(=O)c1c(S(=O)(=O)N[C@@H]2CCNC2)ccc(N2CCCc3ccncc32)c1-c1nnn[nH]1 [Example 21, 4-(3,4-dihydro-1,7-naphthyridin-1(2H)-yl)-N1-[(3R)-pyrrolidin-3-yl]-3-(1H-tetrazol-5-yl)benzene-1,2-disulfonamide]
- pIC50 [1]: 9.66
- pIC50 [2]: 9.68
- MB9799 MITC95 P. aeruginosa Efflux Mutant [3]: 1.56 µM
- pIC50 [4]: 8.91
- MB9798 MITC95 P. aeruginosa Efflux WT [5]: 3.13 µM
- IHMA599644 K.pneumoniae MITC95 uM VIM [6]: 6.25 µM
- CLB30016 E.coli MITC95 NDM [7]: 0.20 µM
- CL5741 S.marcescens MITC95 uM IMP [8]: 0.78 µM
- pIC50 [9]: 8.61

SMILES: NS(=O)(=O)c1c(S(=O)(=O)N[C@@H]2CCNC2)ccc(N2Cc3cccnc3C2)c1-c1nnn[nH]1 [Example 22, 4-(5,7-dihydro-6H-pyrrolo[3,4-b]pyridin-6-yl)-N1-[(3R)-pyrrolidin-3-yl]-3-(1H-tetrazol-5-yl)benzene-1,2-disulfonamide]
- pIC50 [1]: 9.23
- pIC50 [2]: 9.21
- MB9799 MITC95 P. aeruginosa Efflux Mutant [3]: 1.56 µM
- pIC50 [4]: 8.64
- MB9798 MITC95 P. aeruginosa Efflux WT [5]: 3.13 µM
- IHMA599644 K.pneumoniae MITC95 uM VIM [6]: 6.25 µM
- CLB30016 E.coli MITC95 NDM [7]: 0.78 µM
- CL5741 S.marcescens MITC95 uM IMP [8]: 3.13 µM
- pIC50 [9]: 9.77

SMILES: NS(=O)(=O)c1c(S(=O)(=O)N[C@@H]2CCNC2)ccc(N2CCc3cccnc3C2)c1-c1nnn[nH]1 [Example 23, 4-(5,8-dihydro-1,7-naphthyridin-7(6H)-yl)-N1-[(3R)-pyrrolidin-3-yl]-3-(1H-tetrazol-5-yl)benzene-1,2-disulfonamide]
- pIC50 [1]: 7.68
- pIC50 [2]: 7.61
- MB9799 MITC95 P. aeruginosa Efflux Mutant [3]: 6.25 µM
- pIC50 [4]: 7.41
- MB9798 MITC95 P. aeruginosa Efflux WT [5]: 50.00 µM
- IHMA599644 K.pneumoniae MITC95 uM VIM [6]: 12.50 µM
- CLB30016 E.coli MITC95 NDM [7]: 3.13 µM
- CL5741 S.marcescens MITC95 uM IMP [8]: 12.50 µM
- pIC50 [9]: 7.36

SMILES: NS(=O)(=O)c1c(S(=O)(=O)N[C@@H]2CCNC2)ccc(N2CCc3ncc(O)cc3C2)c1-c1nnn[nH]1 [Example 24, 4-(3-hydroxy-7,8-dihydro-1,6-naphthyridin-6(5H)-yl)-N1-[(3R)-pyrrolidin-3-yl]-3-(1H-tetrazol-5-yl)benzene-1,2-disulfonamide]
- pIC50 [1]: 9.72
- pIC50 [2]: 9.55
- MB9799 MITC95 P. aeruginosa Efflux Mutant [3]: 3.13 µM
- pIC50 [4]: 9.13
- MB9798 MITC95 P. aeruginosa Efflux WT [5]: 25.00 µM
- IHMA599644 K.pneumoniae MITC95 uM VIM [6]: 3.13 µM
- CLB30016 E.coli MITC95 NDM [7]: 0.39 µM
- CL5741 S.marcescens MITC95 uM IMP [8]: 1.56 µM
- pIC50 [9]: 8.86

SMILES: NS(=O)(=O)c1c(S(=O)(=O)N[C@@H]2CCNC2)ccc(N2CCc3nc(O)ccc3C2)c1-c1nnn[nH]1 [Example 25, 4-(2-hydroxy-7,8-dihydro-1,6-naphthyridin-6(5H)-yl)-N1-[(3R)-pyrrolidin-3-yl]-3-(1H-tetrazol-5-yl)benzene-1,2-disulfonamide]
- pIC50 [1]: 8.96
- pIC50 [2]: 8.51
- MB9799 MITC95 P. aeruginosa Efflux Mutant [3]: 0.78 µM
- pIC50 [4]: 8.32
- MB9798 MITC95 P. aeruginosa Efflux WT [5]: 6.25 µM
- IHMA599644 K.pneumoniae MITC95 uM VIM [6]: 1.56 µM
- CLB30016 E.coli MITC95 NDM [7]: 0.39 µM
- CL5741 S.marcescens MITC95 uM IMP [8]: 0.78 µM
- pIC50 [9]: 8.21

SMILES: NS(=O)(=O)c1c(S(=O)(=O)N[C@@H]2CCNC2)ccc(N2CCc3[nH]nnc3C2)c1-c1nnn[nH]1 [Example 26, N1-[(3R)-pyrrolidin-3-yl]-4-(1,4,6,7-tetrahydro-5H-[1,2,3]triazolo[4,5-c]pyridin-5-yl)-3-(1H-tetrazol-5-yl)benzene-1,2-disulfonamide]
- pIC50 [1]: 8.76
- pIC50 [2]: 8.67
- MB9799 MITC95 P. aeruginosa Efflux Mutant [3]: 0.78 µM
- pIC50 [4]: 8.29
- MB9798 MITC95 P. aeruginosa Efflux WT [5]: 6.25 µM
- IHMA599644 K.pneumoniae MITC95 uM VIM [6]: 3.13 µM
- CLB30016 E.coli MITC95 NDM [7]: 0.78 µM
- CL5741 S.marcescens MITC95 uM IMP [8]: 1.56 µM
- pIC50 [9]: 8.22

SMILES: Cc1cc2c(c(C)n1)CCN2c1ccc(S(=O)(=O)N[C@@H]2CCNC2)c(S(N)(=O)=O)c1-c1nnn[nH]1 [Example 27, 4-(4,6-dimethyl-2,3-dihydro-1H-pyrrolo[3,2-c]pyridin-1-yl)-N1-[(3R)-pyrrolidin-3-yl]-3-(1H-tetrazol-5-yl)benzene-1,2-disulfonamide]
- pIC50 [1]: 9.85
- pIC50 [2]: 8.30
- MB9799 MITC95 P. aeruginosa Efflux Mutant [3]: 3.13 µM
- pIC50 [4]: 8.86
- MB9798 MITC95 P. aeruginosa Efflux WT [5]: 50.00 µM
- IHMA599644 K.pneumoniae MITC95 uM VIM [6]: 3.13 µM
- CLB30016 E.coli MITC95 NDM [7]: 1.56 µM
- CL5741 S.marcescens MITC95 uM IMP [8]: 6.25 µM
- pIC50 [9]: 7.08
